According to patent publication US20240327421A1 (Marquette University, priority 2017, published 2024):
“And” between values parts separate entries of the source, which are not always exact repeats. Identical values can stand only once. “Also recorded” adds a separate entry of the source.

Experiments:
[1] = biological target: T1, ERα LBD fused to GAL4 DBD (Homo sapiens, UniProt P03372); assay: GeneBLAzer cell-based transcriptional activation, chimeric ERα; conditions: agonist mode
T1 sequence (P03372 311-547 limits assumed): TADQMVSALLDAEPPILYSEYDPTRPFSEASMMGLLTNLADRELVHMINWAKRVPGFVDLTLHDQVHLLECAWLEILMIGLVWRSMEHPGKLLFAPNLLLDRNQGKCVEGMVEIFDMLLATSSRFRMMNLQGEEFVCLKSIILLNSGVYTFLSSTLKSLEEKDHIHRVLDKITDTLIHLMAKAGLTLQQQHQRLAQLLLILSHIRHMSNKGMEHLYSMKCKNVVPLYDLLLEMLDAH

MCF-7 cells = assay: MTT assay for proliferation of MCF-7 cells; type: cell-based; conditions: 24 h treatment, 0.001-10 μM
Method: FIGS. 15A-15C. MTT assay for proliferation of MCF-7 cells. Cells were seeded into 96-well plates and incubated for 24 hr before treatment was applied. […] Absorbance values were converted to cell counts using a standard growth curve.
MTT Assays. Human breast cancer cells (MCF-7) were provided by Dr. Manish Patankar (Department of Obstetrics and Gynecology, University of Wisconsin-Madison). Cells were cultured in Eagle's Minimum Essential Media (EMEM) supplemented with 10% fetal bovine serum and 0.01 mg/mL human recombinant insulin in 5% CO2 at 37° C. A seeding density of 7,000 cells per well was chosen and applied to a 96 well plate. […] Treated cells were incubated for 24 hours after which an MTT (3-(4,5-Dimethylthiazol-2-yl)-2,5-Diphenyltetrazolium Bromide) assay was performed by adding 20% MTT in EMEM solution to cach well and incubating for 4 hours. Formazan crystal metabolites were dissolved using 100% DMSO and absorbance was read at OD 570 nm as well as a reference of 650 nm using a VMax kinetic microplate reader (Molecular Devices, CA) running Softmax Pro version 6.1. Absorbances were converted to cell number using a standard growth curve.

ERα = biological target: T2, ERα (Homo sapiens, UniProt P03372); assay: Cell-based luciferase reporter assay, full length ERα, agonist mode; conditions: full length ERα, 22 h, read-out: ERα agon. IC50
T2 construct: employs a full length and native ER (comprised of an ER LBD and an ER DBD)
T2 sequence (P03372 1-595): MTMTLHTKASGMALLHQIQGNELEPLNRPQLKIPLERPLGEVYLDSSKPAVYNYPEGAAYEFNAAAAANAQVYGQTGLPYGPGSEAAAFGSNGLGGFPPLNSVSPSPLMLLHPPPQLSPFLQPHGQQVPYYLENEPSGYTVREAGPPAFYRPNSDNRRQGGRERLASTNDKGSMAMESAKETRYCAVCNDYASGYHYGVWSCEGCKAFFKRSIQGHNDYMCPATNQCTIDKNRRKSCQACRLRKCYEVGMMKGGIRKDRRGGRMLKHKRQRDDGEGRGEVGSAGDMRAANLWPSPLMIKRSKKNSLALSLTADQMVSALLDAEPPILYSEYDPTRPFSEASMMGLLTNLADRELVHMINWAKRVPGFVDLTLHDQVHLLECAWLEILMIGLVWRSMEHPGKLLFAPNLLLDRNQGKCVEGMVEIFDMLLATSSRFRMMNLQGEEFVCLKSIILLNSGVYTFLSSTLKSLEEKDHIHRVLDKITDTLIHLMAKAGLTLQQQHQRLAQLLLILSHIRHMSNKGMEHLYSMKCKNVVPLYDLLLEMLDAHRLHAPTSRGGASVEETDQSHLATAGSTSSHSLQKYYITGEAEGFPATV

Androgen Receptor (AR) = biological target: T3, Androgen Receptor (AR) (Homo sapiens, UniProt P10275); assay: GeneBLAzer nuclear hormone receptor specificity assay, AR; type: cell-based; conditions: 0.25 to 25 μM; listed as ISP358-2
T3 sequence (P10275 669-900 limits assumed): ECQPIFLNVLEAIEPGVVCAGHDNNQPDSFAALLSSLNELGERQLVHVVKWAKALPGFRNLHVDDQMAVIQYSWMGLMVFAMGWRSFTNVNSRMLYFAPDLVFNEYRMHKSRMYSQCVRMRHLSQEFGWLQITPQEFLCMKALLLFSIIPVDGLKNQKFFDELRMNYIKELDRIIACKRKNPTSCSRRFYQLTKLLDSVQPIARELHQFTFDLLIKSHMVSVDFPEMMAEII

ovariectomized mice = assay: Object placement (spatial memory consolidation) test; conditions: for object placement: spatial memory consolidation after long-term ovariectomy: oral gavage 4 months after ovariectomy, same doses (0.5 or 5 mg/kg ISP358-2, 0.05 mg/kg DPN), preliminary
Vitamin D Receptor (VDR) = biological target: T4, Vitamin D Receptor (VDR) (Homo sapiens, UniProt P11473); assay: GeneBLAzer nuclear hormone receptor specificity assay, VDR; type: cell-based; conditions: 0.25 to 25 μM; listed as ISP358-2
T4 sequence (P11473 127-423 limits assumed): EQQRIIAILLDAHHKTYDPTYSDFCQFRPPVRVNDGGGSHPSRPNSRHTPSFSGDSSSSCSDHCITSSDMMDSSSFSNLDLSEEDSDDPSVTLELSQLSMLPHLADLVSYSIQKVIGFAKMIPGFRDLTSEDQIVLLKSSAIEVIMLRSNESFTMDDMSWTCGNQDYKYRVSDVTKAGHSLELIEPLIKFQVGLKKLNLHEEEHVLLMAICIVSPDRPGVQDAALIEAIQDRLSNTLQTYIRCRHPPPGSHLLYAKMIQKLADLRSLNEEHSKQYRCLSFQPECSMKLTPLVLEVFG

`OC[C@H]1CC[C@H](c2ccc(O)cc2)CC1` [Compound 16] was tested, and the IC50 [1] was 0.93 ± 0.069 µM, the “proliferation of MCF-7 cells vs untreated control” value (MCF-7 cells) was “No significant changes in the growth of MCF-7 cells” and the “proliferation of MCF-7 cells vs untreated control” value (MCF-7 cells; listed as ISP358-2) was “neither ISP358-2 nor DPN showed any significant proliferation”. The IC50 (ERα) was 20.4 µM and 18.6 µM, the “agonist activity, AR” value (Androgen Receptor (AR)) was “not an agonist; also recorded: no significant off-target activity” and the “object placement: time with moved object / memory consolidation” value (ovariectomized mice; IP injection, 0.5 mg/kg, listed as ISP358-2, 0.5 mg/kg) was “spent significantly more time than chance with the moved object; also recorded: most effectively enhanced consolidation; also recorded: enhanced memory consolidation”. The “object placement: time with moved object / memory consolidation” value (ovariectomized mice; IP injection, 5 mg/kg, listed as ISP358-2, 5 mg/kg) was “spent significantly more time than chance with the moved object; also recorded: also enhanced OP memory consolidation”, the “object placement: time with moved object / memory consolidation” value (ovariectomized mice; dorsal hippocampal infusion, 10 pg/hemisphere, tested 24 h after training, chance 15 s) was “did not spend significantly more time than chance with the moved object” and the “object placement: time with moved object / memory consolidation” value (ovariectomized mice; dorsal hippocampal infusion, 100 pg/hemisphere, tested 24 h after training, listed as ISP358-2) was “spent significantly more time than chance with the moved object; also recorded: enhanced memory consolidation; also recorded: significantly increased time was spent”. The “object placement: time with moved object / memory consolidation” value (ovariectomized mice; dorsal hippocampal infusion, 1 ng/hemisphere, tested 24 h after training, listed as ISP358-2) was “spent significantly more time than chance with the moved object; also recorded: enhanced memory consolidation; also recorded: significantly increased time was spent”, the “object placement: spatial memory consolidation after long-term ovariectomy” value (ovariectomized mice) was “did not enhance spatial memory consolidation” and the “object placement: spatial memory consolidation after long-term ovariectomy” value (ovariectomized mice; listed as ISP358-2) was “neither DPN nor ISP358-2 affected memory”. For the same molecule, the “object placement: time with moved object / memory consolidation” value (ovariectomized mice; oral gavage, 0.5 mg/kg, within 1 month of ovariectomy, listed as ISP358-2, 0.5 mg/kg) was “exhibited a significant preference for the moved object relative to chance; also recorded: enhanced memory consolidation”, the “object placement: time with moved object / memory consolidation” value (ovariectomized mice; oral gavage, 5 mg/kg, within 1 month of ovariectomy, listed as ISP358-2, 5 mg/kg) was “exhibited a significant preference for the moved object relative to chance; also recorded: most effective; also recorded: enhanced memory consolidation” and the “agonist activity, VDR” value (Vitamin D Receptor (VDR)) was “not an agonist; also recorded: no significant off-target activity”.
